US8557791B2, “Anti-tumor agent comprising cytidine derivative and carboplatin” (Taiho Pharmaceutical Co., Ltd., priority 2008, dated 2013)

How the values were obtained:
[1] = system: human lung cancer strain LX-1; assay: Antitumor effect in nude mice with subcutaneously transplanted human lung cancer strain LX-1; type: in vivo, mouse; conditions: day 15, LX-1 s.c., i.v. days 1 and 8, ECyd 2 mg/kg, carboplatin 70 mg/kg; for RTV Mean ± SD (Relative Tumor Volume): male nude mice (BALB/cA jcl-nu); for IR (Inhibition Rate of tumor proliferation with respect to control): male nude mice
Description: A fragment (about 2×2 mm) of human lung cancer strain LX-1 was subcutaneously transplanted in the back of each of male nude mice (BALB/cA jcl-nu). When the average tumor volume (longer diameter (mm)×shorter diameter (mm)×shorter diameter (mm)×½) of these mice reached about 200 mm^3, the mice were divided into groups based on the tumor volume (8 mice in each group) (day 0).
Drug administration was started on the day following transplant (day 1). ECyd and carboplatin were administered to a mouse through the caudal vein at a dose of 2 mg/kg and 70 mg/kg, respectively, on days 1 and 8. Mice of a control group were not subjected to drug treatment.
On day 15, the ratio of tumor volume to that at the grouping (Relative Tumor Volume; RTV) was calculated. In addition, percent inhibition of tumor proliferation of a group with respect to the control group (Inhibition Rate (%); IR (%)) was calculated by equation 2.
From the tumor volume on day 15, enhancement in antitumor effect of the combined administration group with respect to the ECyd-only administration group and the carboplatin-only administration group was analyzed through the Student's t-test (both sides). The antitumor effect of the combined administration group with respect to either single administration group had significance value (p value) of less than 0.05, confirming that administration of ECyd and carboplatin in combination is statistically significant. IR (%)=[1−average tumor volume of treated group/average tumor volume of control group]×100 (Equation 2)

[2] = system: human head and neck cancer strain OCC-1; assay: Survival of nude rats with subcutaneously transplanted human head and neck cancer strain OCC-1; type: in vivo, rat; conditions: carboplatin 40 mg/kg/day vs cisplatin 5 mg/kg/day as employed in the test
Description: Male nude rats (F344/N Jcl-rnu) were divided in terms of body weight into groups (14 rats in each group). To each rat, a fragment (about 2×2 mm) of human head and neck cancer strain OCC-1 was subcutaneously transplanted into the back (day 0). Drug administration was started on the day following transplant (day 1). ECyd was administered to a rat through the caudal vein at a dose of 0.3 mg/kg on days 1, 3, 5, 8, 10, and 12. Carboplatin was administered to a rat through the caudal vein at a dose of 30 mg/kg or 40 mg/kg on days 1 and 8. Cisplatin was administered to a rat through the caudal vein at a dose of 5 mg/kg on day 1. […] Rats of a control group were not subjected to drug treatment.
Thereafter, the survival (days) of each rat was checked, and the survival rate of each group was calculated by the following equation 1. FIGS. 1 to 3 are graphs showing survival rates; in each graph the horizontal axis represents days and the vertical axis represents survival rate. Survival rate (%)=(no. of surviving rats/no. of rats tested)×100 (Equation 1)

SMILES	RTV Mean ± SD (Relative Tumor Volume) [1]	IR (Inhibition Rate of tumor proliferation with respect to control) [1]	antitumor effect of the platinum agents compared with each other [2]
C#C[C@@]1(O)[C@@H](CO)O[C@@H](n2ccc(N)nc2=O)[C@@H]1O [ECyd, 1-(3-C-Ethynyl-β-D-ribopentofuranosyl)cytosine]	5.43 ± 1.51	43.8%	–
N.N.O=C([O-])C1(C(=O)[O-])CCC1.[Pt+2] [carboplatin, cis-diammine(1,1-cyclobutanedicarboxylato)platinum(II)]	5.53 ± 1.75	42.8%	almost the same antitumor effect
N.N.[Cl][Pt][Cl] [cisplatin]	–	–	almost the same antitumor effect
